Among the data in patent US10196390B2, “TYK2 inhibitors and uses thereof” (Nimbus Lakshmi, Inc., priority 2014, dated 2019) are EC50 and Ki values, retold here.

The subject of one experiment is JAK2-pSTAT5. In words: GM-CSF induced pSTAT5 in human PBMC. The format is cell-based. The note with it: read-out: JAK2-pSTAT5 EC50. On the procedure: Human PBMC are isolated from buffy coat and are stored frozen for assays as needed. […] 15 μl of compound or DMSO is added to the well at the desired concentrations and incubated at 1 hr at 37 C. 15 μl of stimulus (final concentration of 1.7 ng/mL IL-12) is added for 30 minutes prior to pSTAT4 and total STAT4 analysis using cell lysates prepared and analyzed by MSD reagents as per manufacturer protocol. The final DMSO concentration of compound in the assay is 0.1%.
Cells are prepared for analysis as in the above procedure and 15 μl of GM-CSF (final concentration 5 ng/mL) is added for 20 minutes prior to pSTAT5 and total STAT5 analysis using cell lysates prepared and analyzed by MSD reagents as per manufacturer protocol. The final DMSO concentration of compound in the assay is 0.1%.

The test system of another experiment is Tyk2-pSTAT4. As to the kind of experiment: IL-12 induced pSTAT4 in human PBMC. The note with it: read-out: Tyk2-pSTAT4 EC50. The format is cell-based. On the procedure: Human PBMC are isolated from buffy coat and are stored frozen for assays as needed. Cells for assay are thawed and resuspended in complete media containing serum, then cells are diluted to 1.67 E6 cells/ml so that 120 μl per well is 200,000 cells. 15 μl of compound or DMSO is added to the well at the desired concentrations and incubated at 1 hr at 37 C. 15 μl of stimulus (final concentration of 1.7 ng/mL IL-12) is added for 30 minutes prior to pSTAT4 and total STAT4 analysis using cell lysates prepared and analyzed by MSD reagents as per manufacturer protocol. The final DMSO concentration of compound in the assay is 0.1%.

The next experiment has as its target JAK2 (Homo sapiens (Human), UniProt O60674). As to the kind of experiment: JAK2 activity inhibition assay (radioactive kinase assay / Caliper assay). The format is biochemical. As to conditions: read-out: JAK2 Ki. In short, it runs like this: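 Reaction ran 25 min at 28° C after adding peptide/ATP mix (10 mM MgCl2) to compound and enzyme in HEPES pH 7.5 buffer with Brij-35, Triton and EGTA. EDTA stop, then microfluidic off-chip separation quantified phosphorylated peptide.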

The next experiment deals with TYK2 (Homo sapiens (Human), UniProt P29597). In words: Tyk2 activity inhibition assay (radioactive kinase assay / Caliper assay). The format is biochemical. The method, boiled down:
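Two formats were used. Caliper off-chip mobility shift read phosphorylated peptide 30 (3 uM) after 25 min at 28° C with 9.75 nM TYK2 and ATP at 16 uM or 1 mM. Radioactive assay: 10 μM 33P-ATP, 20 μM peptide, 120 min room temp, P81 filter counting.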

The mark [1] stands for this setting: IL-12 induced pSTAT4, human PBMC.
[2] abbreviates: GM-CSF induced pSTAT5, human PBMC.

Like-named read-outs stand apart in the source and are kept apart here.

Sequence of TYK2 (P29597 whole entry): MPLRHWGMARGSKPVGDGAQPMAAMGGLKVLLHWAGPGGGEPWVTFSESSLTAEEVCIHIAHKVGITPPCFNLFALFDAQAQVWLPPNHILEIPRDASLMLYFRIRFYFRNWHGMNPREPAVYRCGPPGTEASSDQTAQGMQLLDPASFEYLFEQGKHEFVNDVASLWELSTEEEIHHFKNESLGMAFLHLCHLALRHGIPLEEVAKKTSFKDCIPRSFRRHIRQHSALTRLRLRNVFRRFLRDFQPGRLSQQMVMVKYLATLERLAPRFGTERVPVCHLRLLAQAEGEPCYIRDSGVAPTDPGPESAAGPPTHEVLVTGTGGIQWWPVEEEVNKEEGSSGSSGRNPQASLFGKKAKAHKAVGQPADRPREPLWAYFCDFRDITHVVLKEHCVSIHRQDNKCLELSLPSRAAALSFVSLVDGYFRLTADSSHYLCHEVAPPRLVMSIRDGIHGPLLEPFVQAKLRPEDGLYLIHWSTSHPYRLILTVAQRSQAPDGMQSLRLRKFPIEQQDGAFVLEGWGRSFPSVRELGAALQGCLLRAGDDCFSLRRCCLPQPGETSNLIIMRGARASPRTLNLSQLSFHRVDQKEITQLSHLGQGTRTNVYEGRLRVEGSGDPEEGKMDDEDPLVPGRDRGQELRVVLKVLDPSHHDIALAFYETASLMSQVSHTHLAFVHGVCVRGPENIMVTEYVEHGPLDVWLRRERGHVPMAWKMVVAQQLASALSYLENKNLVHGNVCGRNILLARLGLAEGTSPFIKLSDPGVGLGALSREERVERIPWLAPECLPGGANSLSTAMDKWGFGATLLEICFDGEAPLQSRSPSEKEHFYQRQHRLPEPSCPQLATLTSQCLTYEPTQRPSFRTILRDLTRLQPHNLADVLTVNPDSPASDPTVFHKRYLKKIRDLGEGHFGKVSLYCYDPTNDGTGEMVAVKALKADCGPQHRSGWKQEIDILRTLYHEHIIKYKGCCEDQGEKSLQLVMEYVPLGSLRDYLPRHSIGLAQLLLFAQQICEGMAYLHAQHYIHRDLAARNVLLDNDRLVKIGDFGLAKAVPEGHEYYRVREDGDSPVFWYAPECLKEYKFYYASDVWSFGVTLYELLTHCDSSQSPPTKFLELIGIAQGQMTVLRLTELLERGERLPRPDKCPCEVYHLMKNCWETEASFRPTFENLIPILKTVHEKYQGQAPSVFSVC
Sequence of JAK2 (O60674 whole entry): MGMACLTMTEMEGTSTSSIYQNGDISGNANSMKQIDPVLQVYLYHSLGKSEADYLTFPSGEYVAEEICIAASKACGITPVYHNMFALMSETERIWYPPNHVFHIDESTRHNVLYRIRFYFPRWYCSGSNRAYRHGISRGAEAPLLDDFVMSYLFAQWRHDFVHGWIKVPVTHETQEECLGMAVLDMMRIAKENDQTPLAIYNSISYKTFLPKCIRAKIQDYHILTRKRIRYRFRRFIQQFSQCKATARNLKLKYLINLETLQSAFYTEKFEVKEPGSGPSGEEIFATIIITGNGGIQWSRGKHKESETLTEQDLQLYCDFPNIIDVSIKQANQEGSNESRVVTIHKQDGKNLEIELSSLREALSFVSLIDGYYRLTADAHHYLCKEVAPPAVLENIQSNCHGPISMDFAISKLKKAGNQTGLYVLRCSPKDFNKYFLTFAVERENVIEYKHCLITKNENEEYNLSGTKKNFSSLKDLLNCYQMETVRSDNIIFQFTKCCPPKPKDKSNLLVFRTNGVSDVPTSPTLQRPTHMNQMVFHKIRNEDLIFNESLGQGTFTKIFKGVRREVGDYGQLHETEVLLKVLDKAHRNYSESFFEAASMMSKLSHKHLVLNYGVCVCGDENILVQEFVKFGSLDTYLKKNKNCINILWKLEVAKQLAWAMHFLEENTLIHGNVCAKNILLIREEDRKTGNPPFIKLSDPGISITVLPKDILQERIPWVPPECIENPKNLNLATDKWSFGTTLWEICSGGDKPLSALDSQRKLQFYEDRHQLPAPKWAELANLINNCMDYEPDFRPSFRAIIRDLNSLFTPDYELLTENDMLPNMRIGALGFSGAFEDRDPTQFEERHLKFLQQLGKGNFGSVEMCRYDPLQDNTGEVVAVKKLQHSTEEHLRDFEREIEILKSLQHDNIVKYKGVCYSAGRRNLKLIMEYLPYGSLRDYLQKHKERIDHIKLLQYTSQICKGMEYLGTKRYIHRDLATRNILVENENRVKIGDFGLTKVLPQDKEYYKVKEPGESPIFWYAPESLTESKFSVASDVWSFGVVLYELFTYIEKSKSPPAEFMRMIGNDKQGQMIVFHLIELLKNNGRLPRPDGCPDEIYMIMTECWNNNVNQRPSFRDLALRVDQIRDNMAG

As to `Cc1ccc(Nc2nc(-c3c(F)cccc3F)nc3c2C(=O)NC3)cc1` [Compound I-21, 2-(2,6-difluorophenyl)-4-(p-tolylamino)-6,7-dihydro-5H-pyrrolo[3,4-d]pyrimidin-5-one], the EC50 with JAK2-pSTAT5 (Homo sapiens, PBMC) is over 20000 nM; in the experiment with Tyk2-pSTAT4 (Homo sapiens, PBMC) it was under 2000 nM.

For `O=C1NCc2nc(-c3c(F)cccc3F)cc(Nc3ccc(N4CC5(COC5)C4)cn3)c21` [Compound I-144, 4-((5-(2-oxa-6-azaspiro[3.3]heptan-6-yl)pyridin-2-yl)amino)-2-(2,6-difluorophenyl)-6,7-dihydro-5H-pyrrolo[3,4-b]pyridin-5-one], the Ki on JAK2 and at TYK2 was under 10 nM in each case. For the same compound, in the experiment on Tyk2-pSTAT4 (setting [1]), the concentration giving a half-maximal response (EC50) was under 2000 nM.

On to `CC[C@@]1(c2ccc(Nc3nc(-c4c(F)cccc4F)nc4c3C(=O)NC4)cc2)CCNC1=O` [Compound I-176, (S)-2-(2,6-difluorophenyl)-4-((4-(3-ethyl-2-oxopyrrolidin-3-yl)phenyl)amino)-6,7-dihydro-5H-pyrrolo[3,4-d]pyrimidin-5-one], for which the Ki on JAK2 is 10 to 100 nM. Besides, the figures for the EC50 in the experiment with JAK2-pSTAT5 (setting [2]) and with Tyk2-pSTAT4 (setting [1]) were 2000 to 20000 nM and under 2000 nM, respectively.

Take `CC(C)Oc1ccc(Nc2nc(-c3c(F)cccc3F)nc3c2C(=O)NC3)cc1` [Compound I-181, 2-(2,6-difluorophenyl)-4-((4-isopropoxyphenyl)amino)-6,7-dihydro-5H-pyrrolo[3,4-d]pyrimidin-5-one]: the Ki at JAK2 lay within 100 to 1000 nM. Also, the concentration for a half-maximal effect (EC50) is over 20000 nM in the experiment on JAK2-pSTAT5 (setting [2]) and under 2000 nM in the experiment with Tyk2-pSTAT4 (setting [1]).

With `CCNC(=O)c1ccc(Nc2nc(-c3c(F)cccc3F)nc3c2C(=O)NC3)cc1` [Compound I-195, 4-((2-(2,6-difluorophenyl)-5-oxo-6,7-dihydro-5H-pyrrolo[3,4-d]pyrimidin-4-yl)amino)-N-ethylbenzamide], the Ki on JAK2 was 100 to 1000 nM. Also, the EC50 in the experiment on JAK2-pSTAT5 (setting [2]) was over 20000 nM; in the experiment on Tyk2-pSTAT4 (Homo sapiens, PBMC), under 2000 nM.

On to `O=C1NCc2nc(-c3c(F)cccc3F)cc(Nc3ccc(N4CCCC4)cn3)c21` [Compound I-205, 2-(2,6-difluorophenyl)-4-((5-(pyrrolidin-1-yl)pyridin-2-yl)ami-no)-6,7-dihydro-5H-pyrrolo[3,4-b]pyridin-5-one], for which the EC50 in the experiment with JAK2-pSTAT5 (setting [2]) is 2000 to 20000 nM; with Tyk2-pSTAT4 (setting [1]), under 2000 nM.

With `CC1(O)CN(c2ccc(Nc3cc(-c4c(F)cccc4F)nc4c3C(=O)NC4)nc2)C1` [Compound I-228, 2-(2,6-difluorophenyl)-4-((5-(3-hydroxy-3-methylazetidin-1-yl)pyridin-2-yl)amino)-6,7-dihydro-5H-pyrrolo[3,4-b]pyridin-5-one], the Ki at JAK2 lay within 10 to 100 nM. Further, the EC50 in the experiment with JAK2-pSTAT5 (setting [2]) is 2000 to 20000 nM; with Tyk2-pSTAT4 (Homo sapiens, PBMC), under 2000 nM.

For `O=C1NCc2nc(-c3c(F)cccc3F)cc(Nc3ccc(N4CC(F)(F)C4)cn3)c21` [Compound I-229, 4-((5-(3,3-difluoroazetidin-1-yl)pyridin-2-yl)amino)-2-(2,6-difluorophenyl)-6,7-dihydro-5H-pyrrolo[3,4-b]pyridin-5-one], on JAK2, the Ki fell in the range of 10 to 100 nM. Further, the EC50 is 2000 to 20000 nM in the experiment on JAK2-pSTAT5 (setting [2]) and under 2000 nM in the experiment on Tyk2-pSTAT4 (Homo sapiens, PBMC).

For `O=C1NCc2nc(-c3c(F)cccc3F)cc(Nc3ccc(N4CCOCC4)nc3)c21` [Compound I-238, 2-(2,6-difluorophenyl)-4-((6-morpholinopyridin-3-yl)amino)-6,7-dihydro-5H-pyrrolo[3,4-b]pyridin-5-one], the Ki on JAK2 fell in the range of 100 to 1000 nM. Further, the values for the EC50 in the experiment with JAK2-pSTAT5 (setting [2]) and with Tyk2-pSTAT4 (setting [1]) were over 20000 nM and under 2000 nM, respectively.

With `CC(C)N1CCN(c2ccc(Nc3cc(-c4c(F)cccc4F)nc4c3C(=O)NC4)nc2)C(=O)C1` [Compound I-242, 2-(2,6-difluorophenyl)-4-((5-(4-isopropyl-2-oxopiperazin-1-yl)pyridin-2-yl)amino)-6,7-dihydro-5H-pyrrolo[3,4-b]pyridin-5-one], the inhibition constant (Ki) at JAK2 lay in the range of 10 to 100 nM. Also, the results for the EC50 in the experiment with JAK2-pSTAT5 (setting [2]) and in the experiment with Tyk2-pSTAT4 (setting [1]) were 2000 to 20000 nM and under 2000 nM, respectively.

In the case of `CC(C)N1CCN(C(=O)c2ccc(Nc3cc(-c4c(F)cccc4F)nc4c3C(=O)NC4)cc2)CC1` [Compound I-243, 2-(2,6-difluorophenyl)-4-((4-(4-isopropylpiperazine-1-carbo-nyl)phenyl)amino)-6,7-dihydro-5H-pyrrolo[3,4-b]pyridin-5-one], on JAK2, the Ki is 10 to 100 nM. In addition, the results for the EC50 with JAK2-pSTAT5 (setting [2]) and in the experiment on Tyk2-pSTAT4 (setting [1]) were 2000 to 20000 nM and under 2000 nM, respectively.

Take `O=C1NCc2nc(-c3c(F)cccc3F)cc(Nc3ccc(N4CCN(CC(F)F)CC4)cn3)c21` [Compound I-247, 4-((5-(4-(2,2-difluoroethyl)piperazin-1-yl)pyridin-2-yl)amino)-2-(2,6-difluorophenyl)-6,7-dihydro-5H-pyrrolo[3,4-b]pyridin-5-one]: the Ki on JAK2 is 10 to 100 nM. The EC50 in the experiment on JAK2-pSTAT5 (setting [2]) and in the experiment with Tyk2-pSTAT4 (setting [1]) was under 2000 nM throughout.

`O=C1NCc2nc(-c3c(F)cccc3F)cc(Nc3ccc(N4CCOCC4=O)cn3)c21` [Compound I-248, 4-(6-((2-(2,6-difluorophenyl)-5-oxo-6,7-dihydro-5H-pyrrolo[3,4-b]pyridin-4-yl)amino)pyridin-3-yl)morpholin-3-one]: on JAK2, the Ki is 10 to 100 nM. The EC50 in the experiment with JAK2-pSTAT5 (setting [2]) and with Tyk2-pSTAT4 (setting [1]) was under 2000 nM throughout.

Turning to `O=C1NCc2nc(-c3c(F)cccc3F)cc(Nc3ccc(N4CCCOCC4)cn3)c21` [Compound I-253, 4-((5-(1,4-oxazepan-4-yl)pyridin-2-yl)amino)-2-(2,6-difluoro-phenyl)-6,7-dihydro-5H-pyrrolo[3,4-b]pyridin-5-one], the inhibition constant (Ki) at JAK2 fell in the range of 10 to 100 nM. The values for the EC50 in the experiment on JAK2-pSTAT5 (setting [2]) and in the experiment with Tyk2-pSTAT4 (setting [1]) were over 20000 nM and under 2000 nM, respectively.

As to `CC(C)N1CCN(c2ccc(Nc3cc(-c4c(F)cccc4F)nc4c3C(=O)NC4)nc2)CC1` [Compound I-256, 2-(2,6-difluorophenyl)-4-((5-(4-isopropylpiperazin-1-yl)pyridin-2-yl)amino)-6,7-dihydro-5H-pyrrolo[3,4-b]pyridin-5-one], the EC50 in the experiment on JAK2-pSTAT5 (setting [2]) and with Tyk2-pSTAT4 (setting [1]) was under 2000 nM throughout.

Take `O=C1NCc2nc(-c3c(F)cccc3F)cc(Nc3ccc(C(=O)N4CCCCC4)cc3)c21` [Compound I-257, 2-(2,6-difluorophenyl)-4-((4-(piperidine-1-carbonyl)phenyl)-amino)-6,7-dihydro-5H-pyrrolo[3,4-b]pyridin-5-one]: at JAK2, the Ki lay in the range of 10 to 100 nM. In addition, the EC50 in the experiment with JAK2-pSTAT5 (setting [2]) is 2000 to 20000 nM; with Tyk2-pSTAT4 (setting [1]), under 2000 nM.

As for `CCNC(=O)c1ccc(Nc2cc(-c3c(F)cccc3F)nc3c2C(=O)NC3)cn1` [Compound I-260, 5-((2-(2,6-difluorophenyl)-5-oxo-6,7-dihydro-5H-pyrrolo[3,4-b]pyridin-4-yl)amino)-N-ethylpicolinamide], at JAK2, the inhibition constant (Ki) was 100 to 1000 nM. For the same compound, the concentration giving a half-maximal response (EC50) with JAK2-pSTAT5 (setting [2]) was over 20000 nM; with Tyk2-pSTAT4 (setting [1]) it was under 2000 nM.

With `O=C1NCc2nc(-c3c(F)cccc3F)cc(Nc3ccc(N4CCN(CCC(F)(F)F)CC4)cn3)c21` [Compound I-262, 2-(2,6-difluorophenyl)-4-((5-(4-(3,3,3-trifluoropropyl)piperazin-1-yl)pyridin-2-yl)amino)-6,7-dihydro-5H-pyrrolo[3,4-b]pyridin-5-one], the Ki on JAK2 lay in the range of 10 to 100 nM. The half-maximal effective concentration (EC50) in the experiment on JAK2-pSTAT5 (setting [2]) and with Tyk2-pSTAT4 (setting [1]) was under 2000 nM in each case.

For the compound `CC1(C)CCC(=O)N1c1ccc(Nc2cc(-c3c(F)cccc3F)nc3c2C(=O)NC3)nc1` [Compound I-272, 2-(2,6-difluorophenyl)-4-((5-(2,2-dimethyl-5-oxopyrrolidin-1-yl)pyridin-2-yl)amino)-6,7-dihydro-5H-pyrrolo[3,4-b]pyridin-5-one], the EC50 with JAK2-pSTAT5 (setting [2]) and with Tyk2-pSTAT4 (setting [1]) was under 2000 nM each time.

In the case of `O=C1NCc2nc(-c3c(F)cccc3F)cc(Nc3ccc(C(=O)N4CCOCC4)nc3)c21` [Compound I-280, 2-(2,6-difluorophenyl)-4-((6-(morpholine-4-carbonyl)pyridin-3-yl)amino)-6,7-dihydro-5H-pyrrolo[3,4-b]pyridin-5-one], the inhibitory constant (Ki) at JAK2 is 100 to 1000 nM; on TYK2 it was 10 to 100 nM.

With `N#Cc1cccc(F)c1-c1cc(Nc2ccc(N3CCOCC3)cn2)c2c(n1)CNC2=O` [Compound I-281, 3-fluoro-2-(4-((5-morpholinopyridin-2-yl)amino)-5-oxo-6,7-dihydro-5H-pyrrolo[3,4-b]pyridin-2-yl)benzonitrile], the inhibitory constant (Ki) on JAK2 and at TYK2 was under 10 nM throughout.
